Laboratory results as given in patent publication US11198691B2, “N-((het)arylmethyl)-heteroaryl-carboxamides compounds as kallikrein inhibitors” (KalVista Pharmaceuticals Limited, priority 2014, dated 2021).

Target: Human FXIa (Homo sapiens (Human), UniProt P03951)
Test: Determination of the % inhibition for FXIa
Assay type: biochemical
Details: 40 μM test compound, 25° C., substrate Z-Gly-Pro-Arg-AFC
Experimental: Determination of the % inhibition for FXIa
Human FXIa (Enzyme Research Laboratories) was incubated at 25° C. with the fluorogenic substrate Z-Gly-Pro-Arg-AFC and 40 μM of the test compound. Residual enzyme activity (initial rate of reaction) was determined by measuring the change in […].

Chain of Human FXIa (P03951 388-625): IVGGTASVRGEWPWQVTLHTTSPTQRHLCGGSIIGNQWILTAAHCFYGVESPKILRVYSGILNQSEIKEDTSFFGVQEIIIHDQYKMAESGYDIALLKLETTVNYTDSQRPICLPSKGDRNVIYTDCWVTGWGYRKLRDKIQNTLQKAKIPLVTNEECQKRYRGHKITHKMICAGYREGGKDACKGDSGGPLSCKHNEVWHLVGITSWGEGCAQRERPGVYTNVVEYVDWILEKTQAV
Chain of Human FXIa (P03951 19-387 partner): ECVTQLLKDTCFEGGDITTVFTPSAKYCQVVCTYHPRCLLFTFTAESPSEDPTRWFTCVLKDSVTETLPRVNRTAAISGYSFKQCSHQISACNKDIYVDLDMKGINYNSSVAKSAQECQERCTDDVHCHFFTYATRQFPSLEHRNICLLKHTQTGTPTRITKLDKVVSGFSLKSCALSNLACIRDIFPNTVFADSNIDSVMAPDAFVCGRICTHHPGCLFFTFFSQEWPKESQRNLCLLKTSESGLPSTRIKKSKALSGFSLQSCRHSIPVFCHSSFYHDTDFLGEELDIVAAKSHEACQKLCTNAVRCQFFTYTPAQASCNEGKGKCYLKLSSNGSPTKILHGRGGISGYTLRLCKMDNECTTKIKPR

Row | % Inhibition @ 40 μM (human FXIa) [%] | SMILES
1 | 0 | Nc1nn(Cc2ccc(Cn3ccccc3=O)cc2)cc1C(=O)NCc1ccc(OC(F)(F)F)cc1 [Example 58, 3-amino-1-({4-[(2-oxopyridin-1-yl)methyl]phenyl}methyl)-N-{[4-(trifluoromethoxy)phenyl]methyl}pyrazole-4-carboxamide]
2 | 0 | NC(=O)c1cccc(CNC(=O)c2cn(Cc3ccc(Cn4ccccc4=O)cc3)nc2C2CC2)c1 [Example 49, N-[(3-carbamoylphenyl)methyl]-3-cyclopropyl-1-({4-[(2-oxopyridin-1-yl)methyl]phenyl}methyl)pyrazole-4-carboxamide]

Row | SMILES | % Inhibition @ 40 μM (human FXIa) [%]
3 | COc1cccc(CNC(=O)c2cn(Cc3ccc(Cn4ccccc4=O)cc3)nc2C2CC2)c1F [Example 52, 3-cyclopropyl-N-[(2-fluoro-3-methoxyphenyl)methyl]-1-({4-[(2-oxopyridin-1-yl)methyl]phenyl}methyl)pyrazole-4-carboxamide] | 1
